Measured values reported in ChEMBL document CHEMBL1201861, “Genomics of Drug Sensitity in Cancer screening data, Wellcome Trust Sanger Institute”.

What was measured:
Assay in all cases: cells
[1] = test system: SNU1; assay type: functional, cell-based, Homo sapiens; settings: Homo sapiens, SNU1;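 also: growth inhibition of human NCI-SNU-1 cells, measured with a cell viability assay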
Description: SANGER: Inhibition of human NCI-SNU-1 cell growth in a cell viability assay.

[2] = test system: KM-H2; assay type: functional, cell-based, Homo sapiens; settings: Homo sapiens, KM-H2;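 also: growth inhibition of KM-H2 cells, read out by a cell viability assay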
Description: SANGER: Inhibition of human KM-H2 cell growth in a cell viability assay.

[3] = test system: HC-1; assay type: functional, cell-based, Homo sapiens; settings: Homo sapiens, HC-1;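 also: growth inhibition of HC-1 cells measured by a cell viability assay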
Description: SANGER: Inhibition of human HC-1 cell growth in a cell viability assay.

[4] = test system: SJSA-1; assay type: functional, cell-based, Homo sapiens; settings: Homo sapiens, SJSA-1;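 also: growth inhibition of human SJSA-1 cells, read out through a cell viability measurement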
Description: SANGER: Inhibition of human SJSA-1 cell growth in a cell viability assay.

[5] = test system: GR-ST; assay type: functional, cell-based, Homo sapiens; settings: Homo sapiens, GR-ST
Description: SANGER: Inhibition of human GR-ST cell growth in a cell viability assay.

[6] = test system: NCI-H2126; assay type: functional, cell-based, Homo sapiens; settings: Homo sapiens, NCI-H2126;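 also: growth inhibition of the cancer cell line, determined with a cell viability readout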
Description: SANGER: Inhibition of human NCI-H2126 cell growth in a cell viability assay.

[7] = test system: DMS-114; assay type: functional, cell-based, Homo sapiens; settings: Homo sapiens, DMS-114
[8] = test system: ES4; assay type: functional, cell-based, Homo sapiens; settings: Homo sapiens, ES4;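 also: growth inhibition of human ES4 cells, read out by a cell viability assay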
Description: SANGER: Inhibition of human ES4 cell growth in a cell viability assay.

[9] = test system: MFM-223; assay type: functional, cell-based, Homo sapiens; settings: Homo sapiens, MFM-223
Description: SANGER: Inhibition of human MFM-223 cell growth in a cell viability assay.

[10] = test system: HAL-01; assay type: functional, cell-based, Homo sapiens; settings: Homo sapiens, HAL-01;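 also: growth inhibition of human HAL-01 cells, read out with a cell viability assay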
Description: SANGER: Inhibition of human HAL-01 cell growth in a cell viability assay.

[11] = test system: COR-L88; assay type: functional, cell-based, Homo sapiens; settings: Homo sapiens, COR-L88;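 also: growth inhibition of COR-L88 cells, read out with a cell viability assay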
Description: SANGER: Inhibition of human COR-L88 cell growth in a cell viability assay.

[12] = test system: LOX IMVI; assay type: functional, cell-based, Homo sapiens; settings: Homo sapiens, LOX IMVI
Description: SANGER: Inhibition of human LOXIMVI cell growth in a cell viability assay.

[13] = test system: NCI-H1838; assay type: functional, cell-based, Homo sapiens; settings: Homo sapiens, NCI-H1838;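 also: growth inhibition of NCI-H1838 cells, determined with a cell viability readout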
Description: SANGER: Inhibition of human NCI-H1838 cell growth in a cell viability assay.

[14] = test system: UACC-257; assay type: functional, cell-based, Homo sapiens; settings: Homo sapiens, UACC-257
Description: SANGER: Inhibition of human UACC-257 cell growth in a cell viability assay.

[15] = test system: LB831-BLC; assay type: functional, cell-based, Homo sapiens; settings: Homo sapiens, LB831-BLC;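 also: growth inhibition of LB831-BLC cells, read out with a cell viability assay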
Description: SANGER: Inhibition of human LB831-BLC cell growth in a cell viability assay.

[16] = test system: Mo; assay type: functional, cell-based, Homo sapiens; settings: Homo sapiens, Mo
Description: SANGER: Inhibition of human Mo-T cell growth in a cell viability assay.

[17] = test system: SBC-1; assay type: functional, cell-based, Homo sapiens; settings: Homo sapiens, SBC-1;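 also: cell viability assay measuring growth inhibition of the SBC-1 cell line, IC50 being the concentration that halves growth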
Description: SANGER: Inhibition of human SBC-1 cell growth in a cell viability assay.

[18] = test system: HCC1187; assay type: functional, cell-based, Homo sapiens; settings: Homo sapiens, HCC1187;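 also: growth inhibition of HCC1187 cells, read out with a cell viability assay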
Description: SANGER: Inhibition of human HCC1187 cell growth in a cell viability assay.

[19] = test system: COLO-824; assay type: functional, cell-based, Homo sapiens; settings: Homo sapiens, COLO-824
Description: SANGER: Inhibition of human COLO-824 cell growth in a cell viability assay.

[20] = test system: AM-38; assay type: functional, cell-based, Homo sapiens; settings: Homo sapiens, AM-38;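 also: growth inhibition of AM-38 cells of human origin, read out by a cell viability assay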
Description: SANGER: Inhibition of human AM-38 cell growth in a cell viability assay.

[21] = test system: MZ2-MEL; assay type: functional, cell-based, Homo sapiens; settings: Homo sapiens, MZ2-MEL;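 also: growth inhibition of MZ2-MEL cells read out with a cell viability assay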
Description: SANGER: Inhibition of human MZ2-MEL cell growth in a cell viability assay.

[22] = test system: HCC 2998; assay type: functional, cell-based, Homo sapiens; settings: Homo sapiens, HCC 2998;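 also: growth inhibition of human HCC2998 cells, measured with a cell viability read-out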
Description: SANGER: Inhibition of human HCC2998 cell growth in a cell viability assay.

[23] = test system: TE-9; assay type: functional, cell-based, Homo sapiens; settings: Homo sapiens, TE-9;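 also: cell growth inhibition, measured with a cell viability readout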
Description: SANGER: Inhibition of human TE-9 cell growth in a cell viability assay.

[24] = test system: HT; assay type: functional, cell-based, Homo sapiens; settings: Homo sapiens, HT
Description: SANGER: Inhibition of human HT cell growth in a cell viability assay.

[25] = test system: L-428; assay type: functional, cell-based, Homo sapiens; settings: Homo sapiens, L-428
Description: SANGER: Inhibition of human L-428 cell growth in a cell viability assay.

[26] = test system: SK-MEL-2; assay type: functional, cell-based, Homo sapiens; settings: Homo sapiens, SK-MEL-2;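 also: growth inhibition of human SK-MEL-2 cells measured with a cell viability assay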
Description: SANGER: Inhibition of human SK-MEL-2 cell growth in a cell viability assay.

[27] = test system: BB49-HNC; assay type: functional, cell-based, Homo sapiens; settings: Homo sapiens, BB49-HNC;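 also: cell viability assay read-out, reported as inhibition of BB49-HNC cell growth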
Description: SANGER: Inhibition of human BB49-HNC cell growth in a cell viability assay.

[28] = test system: A4-Fuk; assay type: functional, cell-based, Homo sapiens; settings: Homo sapiens, A4-Fuk;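 also: growth inhibition of A4-Fuk cells, read out by a cell viability assay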
Description: SANGER: Inhibition of human A4-Fuk cell growth in a cell viability assay.

[29] = test system: SH-4; assay type: functional, cell-based, Homo sapiens; settings: Homo sapiens, SH-4;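 also: growth inhibition of SH-4 cells, read out with a cell viability assay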
Description: SANGER: Inhibition of human SH-4 cell growth in a cell viability assay.

[30] = test system: SCH; assay type: functional, cell-based, Homo sapiens; settings: Homo sapiens, SCH;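 also: growth inhibition of human SCH cells, read out in a cell viability assay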
Description: SANGER: Inhibition of human SCH cell growth in a cell viability assay.

[31] = test system: LS-411N; assay type: functional, cell-based, Homo sapiens; settings: Homo sapiens, LS-411N
[32] = test system: DJM-1; assay type: functional, cell-based, Homo sapiens; settings: Homo sapiens, DJM-1;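 also: growth inhibition of human DJM-1 cells, read out by a cell viability assay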
Description: SANGER: Inhibition of human DJM-1 cell growth in a cell viability assay.

[33] = test system: SHP77; assay type: functional, cell-based, Homo sapiens, SHP-77; settings: Homo sapiens, SHP77;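 also: growth inhibition of human SHP-77 cells measured by a cell viability assay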
Description: SANGER: Inhibition of human SHP-77 cell growth in a cell viability assay.

[34] = test system: NCI-H1770; assay type: functional, cell-based, Homo sapiens; settings: Homo sapiens, NCI-H1770;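 also: growth inhibition of NCI-H1770 cells determined with a viability readout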
Description: SANGER: Inhibition of human NCI-H1770 cell growth in a cell viability assay.

[35] = test system: J-RT3-T3-5; assay type: functional, cell-based, Homo sapiens; settings: Homo sapiens, J-RT3-T3-5;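 also: cell viability assay measuring growth inhibition of human J-RT3-T3-5 cells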
Description: SANGER: Inhibition of human J-RT3-T3-5 cell growth in a cell viability assay.

[36] = test system: ONS-76; assay type: functional, cell-based, Homo sapiens; settings: Homo sapiens, ONS-76;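 also: growth inhibition of human ONS-76 cells, read out with a cell viability assay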
Description: SANGER: Inhibition of human ONS-76 cell growth in a cell viability assay.

[37] = test system: HCC2218; assay type: functional, cell-based, Homo sapiens; settings: Homo sapiens, HCC2218;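 also: cell viability assay read-out, with IC50 given as the concentration that inhibits growth of the cell line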
Description: SANGER: Inhibition of human HCC2218 cell growth in a cell viability assay.

[38] = test system: NCI-N87; assay type: functional, cell-based, Homo sapiens; settings: Homo sapiens, NCI-N87;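 also: growth inhibition of human NCI-N87 cells, read out with a cell viability assay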
Description: SANGER: Inhibition of human NCI-N87 cell growth in a cell viability assay.

[39] = test system: A101D; assay type: functional, cell-based, Homo sapiens; settings: Homo sapiens, A101D;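 also: growth inhibition of the cell line, measured with a viability assay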
Description: SANGER: Inhibition of human A101D cell growth in a cell viability assay.

[40] = test system: SK-UT-1; assay type: functional, cell-based, Homo sapiens; settings: Homo sapiens, SK-UT-1;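 also: growth inhibition of SK-UT-1 cells, measured by a cell viability assay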
Description: SANGER: Inhibition of human SK-UT-1 cell growth in a cell viability assay.

[41] = test system: KLE; assay type: functional, cell-based, Homo sapiens; settings: Homo sapiens, KLE;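 also: growth inhibition of human KLE cells, read out with a cell viability assay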
Description: SANGER: Inhibition of human KLE cell growth in a cell viability assay.

[42] = test system: NCI-H1299; assay type: functional, cell-based, Homo sapiens; settings: Homo sapiens, NCI-H1299;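 also: growth inhibition of human NCI-H1299 cells, read out by a cell viability assay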
Description: SANGER: Inhibition of human NCI-H1299 cell growth in a cell viability assay.

[43] = test system: A3-KAW; assay type: functional, cell-based, Homo sapiens; settings: Homo sapiens, A3-KAW;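 also: growth inhibition of human A3-KAW cells, read out with a cell viability assay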
Description: SANGER: Inhibition of human A3-KAW cell growth in a cell viability assay.

`CN(C)C(=N)NC(=N)N` [METFORMIN] gave an IC50 [1] of 8.47 mM, an IC50 [2] of 18.7 mM and an IC50 [3] of 4.2 mM. For the same compound, the IC50 [4] was over 20 mM, the IC50 [5] was over 20 mM and the IC50 [6] was over 20 mM. The IC50 [7] was over 20 mM, the IC50 [8] was over 20 mM and the IC50 [9] was over 20 mM. For the same compound, the IC50 [10] was over 20 mM, the IC50 [11] was 6.38 mM and the IC50 [12] was 10.7 mM. For the same compound, the IC50 [13] was over 20 mM, the IC50 [14] was 13.9 mM and the IC50 [15] was over 20 mM. The IC50 [16] was over 20 mM, the IC50 [17] was 6.93 mM and the IC50 [18] was 14.2 mM. The IC50 [19] was over 20 mM, the IC50 [20] was over 20 mM and the IC50 [21] was over 20 mM. The IC50 [22] was over 20 mM, the IC50 [23] was 10.5 mM and the IC50 [24] was 11.9 mM. It also gave an IC50 [25] of 7.76 mM, an IC50 [26] of over 20 mM and an IC50 [27] of over 20 mM. It also gave an IC50 [28] of over 20 mM, an IC50 [29] of over 20 mM and an IC50 [30] of over 20 mM. For the same compound, the IC50 [31] was 10.4 mM, the IC50 [32] was 10.2 mM and the IC50 [33] was over 20 mM. The IC50 [34] was 4.1 mM, the IC50 [35] was over 20 mM and the IC50 [36] was over 20 mM. For the same compound, the IC50 [37] was 0.701 mM, the IC50 [38] was over 20 mM and the IC50 [39] was over 20 mM. The IC50 [40] was over 20 mM, the IC50 [41] was over 20 mM and the IC50 [42] was 10.1 mM. For the same compound, the IC50 [43] was over 20 mM.
